Measurements: patent publication US12577223B2, “Processes for preparing 2-(4-chlorophenyl)-n-((2-(2,6-dioxopiperidin-3-yl)-1-oxoisoindolin-5-yl)methyl)-2,2-difluoroacetamide” (Celgene Corporation, priority 2019, dated 2026)

Test: dynamic vapor sorption (DVS) analysis
Type: physicochemical
Conditions: relative humidity increased from about 0% to about 90% RH
Source text: FIG. 5 provides a DVS isotherm plot of polymorph Form C of 2-(4-chlorophenyl)-N-((2-(2,6-dioxopiperidin-3-yl)-1-oxoisoindolin-5-yl)methyl)-2,2-difluoroacetamide.
In certain embodiments, polymorph Form C is characterized by dynamic vapor sorption analysis. A representative dynamic vapor sorption (DVS) isotherm plot is shown in
FIG. 5. […] In certain embodiments, polymorph Form C comprises less than 0.1% water as determined in a coulometric Karl Fischer (KF) titrator equipped with an oven sample processor set at 225° C.

O=C1CCC(N2Cc3cc(CNC(=O)C(F)(F)c4ccc(Cl)cc4)ccc3C2=O)C(=O)N1 (stereo not shown) [polymorph Form C, 2-(4-chlorophenyl)-N-((2-(2,6-dioxopiperidin-3-yl)-1-oxoisoindolin-5-yl)methyl)-2,2-difluoroacetamide]
water uptake: about 0.6 % w/w
